Test results taken from PubChem BioAssay (NCI).
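Following 48 hours of exposure in 96-well plates, responses at five concentrations were used to interpolate endpoints linearly. TGI denotes the concentration required for complete inhibition of growth.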

Assays:
Test in all cases: NCI-60 cell line screen, 48 h
786-0 renal = test system: 786-0 renal
A498 renal = test system: A498 renal
A549 NSCLC = test system: A549 NSCLC
ACHN renal = test system: ACHN renal
CAKI-1 renal = test system: CAKI-1 renal
CCRF-CEM leukemia = test system: CCRF-CEM leukemia
COLO 205 colon = test system: COLO 205 colon
DU-145 prostate = test system: DU-145 prostate
EKVX NSCLC = test system: EKVX NSCLC
HCC-2998 colon = test system: HCC-2998 colon
HCT-116 colon = test system: HCT-116 colon
HCT-15 colon = test system: HCT-15 colon
HL-60(TB) leukemia = test system: HL-60(TB) leukemia
HOP-62 NSCLC = test system: HOP-62 NSCLC
HOP-92 NSCLC = test system: HOP-92 NSCLC
HT29 colon = test system: HT29 colon
IGROV1 ovarian = test system: IGROV1 ovarian
K-562 leukemia = test system: K-562 leukemia
KM12 colon = test system: KM12 colon
LOX IMVI melanoma = test system: LOX IMVI melanoma
M14 melanoma = test system: M14 melanoma
MALME-3M melanoma = test system: MALME-3M melanoma
MDA-MB-231 breast = test system: MDA-MB-231 breast
MDA-MB-435 = test system: MDA-MB-435
MDA-N = test system: MDA-N
MOLT-4 leukemia = test system: MOLT-4 leukemia
NCI-H226 lung = test system: NCI-H226 lung
NCI-H23 lung = test system: NCI-H23 lung
NCI-H460 lung = test system: NCI-H460 lung
NCI-H522 lung = test system: NCI-H522 lung
NCI/ADR-RES ovarian = test system: NCI/ADR-RES ovarian
OVCAR-3 ovarian = test system: OVCAR-3 ovarian
OVCAR-4 ovarian = test system: OVCAR-4 ovarian
OVCAR-5 ovarian = test system: OVCAR-5 ovarian
OVCAR-8 ovarian = test system: OVCAR-8 ovarian
PC-3 prostate = test system: PC-3 prostate
RXF 393 renal = test system: RXF 393 renal
SF-268 CNS = test system: SF-268 CNS
SF-295 CNS = test system: SF-295 CNS
SF-539 CNS = test system: SF-539 CNS
SK-MEL-2 melanoma = test system: SK-MEL-2 melanoma
SK-MEL-28 melanoma = test system: SK-MEL-28 melanoma
SK-MEL-5 melanoma = test system: SK-MEL-5 melanoma
SK-OV-3 ovarian = test system: SK-OV-3 ovarian
SN12C renal = test system: SN12C renal
SNB-19 CNS = test system: SNB-19 CNS
SNB-75 CNS = test system: SNB-75 CNS
SR leukemia = test system: SR leukemia
SW-620 colon = test system: SW-620 colon
T-47D breast = test system: T-47D breast
TK-10 renal = test system: TK-10 renal
U251 CNS = test system: U251 CNS
UACC-257 melanoma = test system: UACC-257 melanoma
UACC-62 melanoma = test system: UACC-62 melanoma
UO-31 renal = test system: UO-31 renal
MCF7 breast = test system: MCF7 breast
RPMI-8226 leukemia = test system: RPMI-8226 leukemia

## O=c1c2ccccc2n2c(-c3ccc(O)cc3)nnc2n1-c1ccccc1
786-0 renal
  TGI: 33.7 µM
A498 renal
  TGI: 31.6 µM
A549 NSCLC
  TGI: 38.6 µM
ACHN renal
  TGI: 30 µM
CAKI-1 renal
  TGI: 65 µM
CCRF-CEM leukemia
  TGI: 51.3 µM
COLO 205 colon
  TGI: > 100 µM
DU-145 prostate
  TGI: 40.1 µM
EKVX NSCLC
  TGI: 34.7 µM
HCC-2998 colon
  TGI: > 100 µM
HCT-116 colon
  TGI: 41.2 µM
HCT-15 colon
  TGI: 50.7 µM
HL-60(TB) leukemia
  TGI: > 100 µM
HOP-62 NSCLC
  TGI: 41 µM
HOP-92 NSCLC
  TGI: 45.6 µM
HT29 colon
  TGI: 43.9 µM
IGROV1 ovarian
  TGI: 34.9 µM
K-562 leukemia
  TGI: 26.2 µM
KM12 colon
  TGI: > 100 µM
LOX IMVI melanoma
  TGI: 55.4 µM
M14 melanoma
  TGI: 39.8 µM
MALME-3M melanoma
  TGI: 42.6 µM
MDA-MB-231 breast
  TGI: 40.3 µM
MDA-MB-435
  TGI: 36.2 µM
MDA-N
  TGI: 34.1 µM
MOLT-4 leukemia
  TGI: > 100 µM
NCI-H226 lung
  TGI: 53.6 µM
NCI-H23 lung
  TGI: 37.7 µM
NCI-H460 lung
  TGI: 40 µM
NCI-H522 lung
  TGI: 38.8 µM
NCI/ADR-RES ovarian
  TGI: 48.5 µM
OVCAR-3 ovarian
  TGI: 39.5 µM
OVCAR-4 ovarian
  TGI: 45.3 µM
OVCAR-5 ovarian
  TGI: > 100 µM
OVCAR-8 ovarian
  TGI: 90.6 µM
PC-3 prostate
  TGI: 33.6 µM
RXF 393 renal
  TGI: 39.4 µM
SF-268 CNS
  TGI: 38.9 µM
SF-295 CNS
  TGI: 31.5 µM
SF-539 CNS
  TGI: 33.9 µM
SK-MEL-2 melanoma
  TGI: 40.9 µM
SK-MEL-28 melanoma
  TGI: 43.3 µM
SK-MEL-5 melanoma
  TGI: 37.2 µM
SK-OV-3 ovarian
  TGI: 38.3 µM
SN12C renal
  TGI: 32.2 µM
SNB-19 CNS
  TGI: 39.7 µM
SNB-75 CNS
  TGI: 38.5 µM
SR leukemia
  TGI: 46.2 µM
SW-620 colon
  TGI: 29.8 µM
T-47D breast
  TGI: 34.8 µM
TK-10 renal
  TGI: 43.5 µM
U251 CNS
  TGI: 32.4 µM
UACC-257 melanoma
  TGI: 41.8 µM
UACC-62 melanoma
  TGI: 38.9 µM
UO-31 renal
  TGI: 6.83 µM

## COC1=CC(=O)c2c(cc(COP(N)(=O)N(CCBr)CCBr)n2C)C1=O (configuration not stated)
A498 renal
  TGI: 2.88 µM
A549 NSCLC
  TGI: 1.71 µM
ACHN renal
  TGI: 0.0219 µM
CCRF-CEM leukemia
  TGI: 0.771 µM
COLO 205 colon
  TGI: 0.144 µM
DU-145 prostate
  TGI: 1.41 µM
EKVX NSCLC
  TGI: 0.207 µM
HCT-116 colon
  TGI: 0.131 µM
HCT-15 colon
  TGI: 2.5 µM
HL-60(TB) leukemia
  TGI: 3.64 µM
HT29 colon
  TGI: 1.05 µM
IGROV1 ovarian
  TGI: 2.8 µM
K-562 leukemia
  TGI: > 100 µM
KM12 colon
  TGI: 4.72 µM
LOX IMVI melanoma
  TGI: 0.121 µM
M14 melanoma
  TGI: 0.633 µM
MALME-3M melanoma
  TGI: 1.86 µM
MCF7 breast
  TGI: 16.1 µM
MDA-MB-231 breast
  TGI: 7.1 µM
MDA-MB-435
  TGI: 2.42 µM
MDA-N
  TGI: 2.24 µM
MOLT-4 leukemia
  TGI: > 100 µM
NCI-H226 lung
  TGI: 1.17 µM
NCI-H23 lung
  TGI: 2.67 µM
NCI-H460 lung
  TGI: 5.38 µM
NCI-H522 lung
  TGI: 0.188 µM
NCI/ADR-RES ovarian
  TGI: 7.86 µM
OVCAR-3 ovarian
  TGI: 0.651 µM
OVCAR-4 ovarian
  TGI: 10.5 µM
OVCAR-5 ovarian
  TGI: 1.06 µM
OVCAR-8 ovarian
  TGI: 1.2 µM
PC-3 prostate
  TGI: 4.62 µM
RPMI-8226 leukemia
  TGI: 1.16 µM
RXF 393 renal
  TGI: 1.49 µM
SF-268 CNS
  TGI: 1.8 µM
SF-295 CNS
  TGI: 0.225 µM
SF-539 CNS
  TGI: 0.133 µM
SK-MEL-2 melanoma
  TGI: 3.57 µM
SK-MEL-28 melanoma
  TGI: 3.1 µM
SK-MEL-5 melanoma
  TGI: 2.2 µM
SK-OV-3 ovarian
  TGI: 1.15 µM
SN12C renal
  TGI: 1.08 µM
SNB-19 CNS
  TGI: 8.28 µM
SNB-75 CNS
  TGI: 1.19 µM
SR leukemia
  TGI: 1.6 µM
SW-620 colon
  TGI: 1.48 µM
T-47D breast
  TGI: 2.98 µM
TK-10 renal
  TGI: 3.43 µM
U251 CNS
  TGI: 0.859 µM
UACC-257 melanoma
  TGI: 4.44 µM
UACC-62 melanoma
  TGI: 1.47 µM
UO-31 renal
  TGI: 3.66 µM
